Read-outs that look alike come from different tables or passages of the source.
Legend:
guinea pig myocytes = test system: guinea pig myocytes; design: method as in Duff et al., 1995; conditions: ref Duff et al., 1995, cited from earlier work
M651T hERG1 = test system: M651T hERG1; design: method as in Perissinotti et al., 2019; conditions: ref Perissinotti et al., 2019; cited from earlier work
WT hERG1 = WT hERG1 (Homo sapiens, UniProt Q12809); assay: cell-based; conditions: HEK 293 cells
Description: (§1) The site-directed mutagenesis methods utilized in this work have been previously reported ([Lees-Miller et al., 2015]; [Wang et al., 2016]). The hERG1 constructs were transfected into mammalian HEK cells. Conventional overlap PCR with primers were synthesized by Sigma Genosys (Oakville, Ontario, Canada) and sequenced by using Eurofins MWG Operon (Huntsville, AL) to create the single- and double-point mutant constructs of hERG1. Following this, XbaI restriction endonuclease was used to linearize and the cRNA was transcribed in vitro using the mMessage mMachine T7 Ultra cRNA transcription kit (Ambion, Austin, TX).
(§2) All experiments were performed under room temperature (295 K). The extracellular solution contained (mM) NaCl 140, KCl 5.4, CaCl2 1, MgCl2 1, HEPES 5, glucose 5.5; the pH of the solution was adjusted and kept at 7.4 with NaOH solution. Micropipettes were pulled from borosilicate glass capillary tubes using a programmable horizontal puller (Sutter Instruments, Novato, CA). […] Tail currents were recorded when the voltage was returned to −100 mV from +50 mV. […] The changes of hERG1 currents during the intracellular dialysis of the drug were monitored each minute right after forming the whole cell configuration. […]

F656C hERG1 = F656C hERG1 (Homo sapiens, UniProt Q12809, F656C); assay: whole-cell patch-clamp of hERG1 tail currents, F656C mutant
Description: as §1, §2

F557L/F656C hERG1 = molecular target: T1, F557L/F656C hERG1 (Homo sapiens, UniProt Q12809, F557L/F656C); assay: whole-cell patch-clamp of hERG1 tail currents, double mutation F557L/F656C; type: cell-based
T1 construct: expressed in transfected cells; host or cells: HEK 293
Description: as §1, §2

hERG1 = molecular target: T2, hERG1 (Homo sapiens, UniProt Q12809); assay: intracellular application of drug via the patch pipette, hERG1 current; type: cell-based; conditions: 100 µM (15-fold greater than extracellular IC50)
T2 construct: expressed in transfected cells; host or cells: HEK 293
Procedure: All experiments were performed under room temperature (295 K). The extracellular solution contained (mM) NaCl 140, KCl 5.4, CaCl2 1, MgCl2 1, HEPES 5, glucose 5.5; the pH of the solution was adjusted and kept at 7.4 with NaOH solution. Micropipettes were pulled from borosilicate glass capillary tubes using a programmable horizontal puller (Sutter Instruments, Novato, CA). The “intracellular” pipette solution contained the following: 10 mM KCl, 110 mM K-aspartate, 5 mM MgCl2, 5 mM Na2ATP, 10 mM EGTA [ethylene glycol-bis(-aminoethyl ether)-N,N,N,N tetraacetic acid], 5 mM HEPES, and 1mM CaCl2. The internal solution was then adjusted to pH 7.2 with KOH solution. Transfected HEK cells were patched to record the hERG1 currents. Standard patch-clamp methods were used to measure the whole cell currents of hERG1 mutants expressed in HEK 293 cells using the AXOPATCH 200B amplifier (Axon Instruments). Tail currents were recorded when the voltage was returned to −100 mV from +50 mV. Ivabradine was dissolved in Tyrode solution immediately before the experiments and the solutions were used for the next 2 h during the experiments. […] The changes of hERG1 currents during the intracellular dialysis of the drug were monitored each minute right after forming the whole cell configuration.

T1 sequence (Q12809 whole entry F557L/F656C): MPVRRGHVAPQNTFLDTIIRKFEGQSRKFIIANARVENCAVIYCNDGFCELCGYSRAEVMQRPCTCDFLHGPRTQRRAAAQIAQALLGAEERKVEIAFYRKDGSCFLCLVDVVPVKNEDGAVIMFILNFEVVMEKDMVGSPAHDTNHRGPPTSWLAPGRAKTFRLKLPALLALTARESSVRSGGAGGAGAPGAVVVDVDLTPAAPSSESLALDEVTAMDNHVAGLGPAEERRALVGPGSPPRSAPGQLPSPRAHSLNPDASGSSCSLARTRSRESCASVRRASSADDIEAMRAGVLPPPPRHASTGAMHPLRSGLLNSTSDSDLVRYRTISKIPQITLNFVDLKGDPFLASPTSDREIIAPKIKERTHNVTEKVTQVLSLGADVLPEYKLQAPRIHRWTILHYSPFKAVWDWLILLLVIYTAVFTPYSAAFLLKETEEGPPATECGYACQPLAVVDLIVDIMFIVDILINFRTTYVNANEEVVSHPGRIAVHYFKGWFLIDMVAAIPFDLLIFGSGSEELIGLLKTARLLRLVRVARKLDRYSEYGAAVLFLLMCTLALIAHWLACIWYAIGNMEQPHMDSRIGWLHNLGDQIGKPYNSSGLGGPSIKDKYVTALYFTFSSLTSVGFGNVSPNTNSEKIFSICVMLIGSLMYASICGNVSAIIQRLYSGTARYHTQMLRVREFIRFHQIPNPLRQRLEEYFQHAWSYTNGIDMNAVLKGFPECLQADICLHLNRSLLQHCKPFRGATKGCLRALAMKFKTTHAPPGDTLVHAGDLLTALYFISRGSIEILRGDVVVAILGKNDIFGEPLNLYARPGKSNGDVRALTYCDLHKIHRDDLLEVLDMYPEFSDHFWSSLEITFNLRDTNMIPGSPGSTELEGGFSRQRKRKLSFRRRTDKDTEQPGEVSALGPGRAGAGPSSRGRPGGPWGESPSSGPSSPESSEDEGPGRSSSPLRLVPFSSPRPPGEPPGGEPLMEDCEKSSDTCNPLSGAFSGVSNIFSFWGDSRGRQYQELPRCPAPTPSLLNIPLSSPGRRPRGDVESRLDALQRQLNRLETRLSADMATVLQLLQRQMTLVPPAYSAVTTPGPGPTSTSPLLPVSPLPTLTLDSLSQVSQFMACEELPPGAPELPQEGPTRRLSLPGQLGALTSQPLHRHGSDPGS
Sequence of WT hERG1 (Q12809 whole entry): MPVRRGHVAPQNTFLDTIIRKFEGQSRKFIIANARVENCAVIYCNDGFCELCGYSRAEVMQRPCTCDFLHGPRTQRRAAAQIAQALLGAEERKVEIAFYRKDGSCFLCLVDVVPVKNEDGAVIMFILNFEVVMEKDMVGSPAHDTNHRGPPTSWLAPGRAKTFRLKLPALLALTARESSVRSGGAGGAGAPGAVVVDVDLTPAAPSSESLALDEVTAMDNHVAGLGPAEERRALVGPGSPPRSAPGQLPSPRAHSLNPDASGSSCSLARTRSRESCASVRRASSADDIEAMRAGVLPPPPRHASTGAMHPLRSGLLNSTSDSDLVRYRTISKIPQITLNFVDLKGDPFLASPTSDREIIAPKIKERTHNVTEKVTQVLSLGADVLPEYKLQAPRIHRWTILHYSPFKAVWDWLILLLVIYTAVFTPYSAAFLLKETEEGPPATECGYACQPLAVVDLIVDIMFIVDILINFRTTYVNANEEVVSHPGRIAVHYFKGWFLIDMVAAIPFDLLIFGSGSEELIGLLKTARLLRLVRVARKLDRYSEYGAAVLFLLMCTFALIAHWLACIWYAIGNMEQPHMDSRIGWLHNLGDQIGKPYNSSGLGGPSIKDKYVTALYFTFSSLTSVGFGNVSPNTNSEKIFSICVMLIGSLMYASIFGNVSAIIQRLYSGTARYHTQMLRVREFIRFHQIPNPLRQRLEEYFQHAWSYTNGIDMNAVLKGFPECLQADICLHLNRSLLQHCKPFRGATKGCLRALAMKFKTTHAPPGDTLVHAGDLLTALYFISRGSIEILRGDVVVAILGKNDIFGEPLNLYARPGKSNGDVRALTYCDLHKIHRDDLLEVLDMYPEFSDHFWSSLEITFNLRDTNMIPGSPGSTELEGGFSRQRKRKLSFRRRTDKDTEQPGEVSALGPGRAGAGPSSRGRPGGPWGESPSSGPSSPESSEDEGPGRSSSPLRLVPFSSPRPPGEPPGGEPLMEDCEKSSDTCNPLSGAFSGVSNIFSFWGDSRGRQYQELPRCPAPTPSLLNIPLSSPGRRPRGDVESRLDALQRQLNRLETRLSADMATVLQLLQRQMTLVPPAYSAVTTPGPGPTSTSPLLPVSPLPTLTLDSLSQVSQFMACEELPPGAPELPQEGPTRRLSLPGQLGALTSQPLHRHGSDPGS
T2 sequence (Q12809 whole entry): as above
Sequence of F656C hERG1 (Q12809 whole entry F656C): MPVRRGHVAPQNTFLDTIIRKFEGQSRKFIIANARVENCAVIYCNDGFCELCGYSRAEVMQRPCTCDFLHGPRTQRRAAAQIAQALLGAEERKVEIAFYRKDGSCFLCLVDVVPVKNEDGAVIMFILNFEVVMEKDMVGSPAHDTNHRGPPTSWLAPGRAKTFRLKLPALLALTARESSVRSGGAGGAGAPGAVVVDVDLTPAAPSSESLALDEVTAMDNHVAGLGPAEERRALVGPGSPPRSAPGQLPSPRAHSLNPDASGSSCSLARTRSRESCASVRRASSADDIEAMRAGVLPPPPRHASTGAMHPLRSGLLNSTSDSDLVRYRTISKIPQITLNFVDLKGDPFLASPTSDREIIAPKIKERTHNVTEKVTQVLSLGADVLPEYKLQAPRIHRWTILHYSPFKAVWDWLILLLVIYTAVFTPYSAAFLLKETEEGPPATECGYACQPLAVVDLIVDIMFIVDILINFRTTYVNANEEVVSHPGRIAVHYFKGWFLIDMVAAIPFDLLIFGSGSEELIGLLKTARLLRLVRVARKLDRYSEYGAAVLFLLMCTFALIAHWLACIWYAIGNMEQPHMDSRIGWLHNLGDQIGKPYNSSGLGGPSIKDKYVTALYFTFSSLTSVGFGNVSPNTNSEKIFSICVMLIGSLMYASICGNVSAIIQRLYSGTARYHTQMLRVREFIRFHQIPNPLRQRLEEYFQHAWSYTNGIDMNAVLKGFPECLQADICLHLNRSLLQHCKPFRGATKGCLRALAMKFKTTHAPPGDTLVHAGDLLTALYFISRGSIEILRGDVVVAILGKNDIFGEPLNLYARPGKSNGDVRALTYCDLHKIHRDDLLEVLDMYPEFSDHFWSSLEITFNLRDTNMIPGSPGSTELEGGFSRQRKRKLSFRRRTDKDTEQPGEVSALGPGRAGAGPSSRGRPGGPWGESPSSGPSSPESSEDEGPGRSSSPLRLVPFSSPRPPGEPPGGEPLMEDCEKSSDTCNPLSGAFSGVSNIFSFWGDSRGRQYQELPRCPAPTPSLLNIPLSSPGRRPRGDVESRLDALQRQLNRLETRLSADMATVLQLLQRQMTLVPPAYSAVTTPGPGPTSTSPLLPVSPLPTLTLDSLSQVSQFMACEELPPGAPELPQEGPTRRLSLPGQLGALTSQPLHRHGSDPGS

SMILES | IC50 (guinea pig myocytes; read-out: high affinity for binding of dofetilide, high-affinity site) [µM] | IC50 (guinea pig myocytes; read-out: low affinity for binding of dofetilide (low affinity IC50 value), low-affinity site) [µM] | sensitivity of block to the M651T mutation (M651T hERG1) | IC50 (WT hERG1; IC50 for block (Hill fit), WT, Figure 7A) [µM] | IC50 (WT hERG1; IC50 for block of hERG1, WT, applied extracellularly, tail currents, room temperature) [µM] | IC50 (F656C hERG1) [µM] | block in raw current traces (F557L/F656C hERG1; F557L/F656C, 100 µM Ivabradine vs control) | blocking (F557L/F656C hERG1; double mutant F557L/F656C, suprapharmacologic concentrations (dofetilide 20 µM, ivabradine 100 µM)) | block of hERG1 current when applied intracellularly (hERG1)
CN(CCOc1ccc(NS(C)(=O)=O)cc1)CCc1ccc(NS(C)(=O)=O)cc1 [dofetilide] | 0.1 | 1 | insensitive | – | – | – | – | – | –
COc1cc2c(cc1OC)CC(=O)N(CCCN(C)C[C@H]1Cc3cc(OC)c(OC)cc31)CC2 [ivabradine] | – | – | – | 6.8 | 6.7 | 45 | no block | ~ 15% | little block

— article PMC7338687, “Allosteric Coupling Between Drug Binding and the Aromatic Cassette in the Pore Domain of the hERG1 Channel: Implications for a State-Dependent Blockade” (Frontiers in Pharmacology, 2020)
